# Source: US7968548B2, “Melanocortin receptor-specific piperazine compounds with diamine groups” (Palatin Technologies, Inc., priority 2005, dated 2011)
# “And” between values parts separate entries of the source, which are not always exact repeats. Identical values can stand only once.
# Columns and labels:
# hMC1-R = biological target: T1, hMC1-R (Homo sapiens, UniProt Q01726); assay: Competitive inhibition binding assay using [I125]-NDP-α-MSH, HEK-293 membranes, recombinant hMC1-R; conditions: human recombinant MC1-R; for inhibition at 1 µM: 1 μM compound
# T1 construct: expressed in transfected cells; host or cells: HEK-293
# T1 sequence (Q01726 whole entry): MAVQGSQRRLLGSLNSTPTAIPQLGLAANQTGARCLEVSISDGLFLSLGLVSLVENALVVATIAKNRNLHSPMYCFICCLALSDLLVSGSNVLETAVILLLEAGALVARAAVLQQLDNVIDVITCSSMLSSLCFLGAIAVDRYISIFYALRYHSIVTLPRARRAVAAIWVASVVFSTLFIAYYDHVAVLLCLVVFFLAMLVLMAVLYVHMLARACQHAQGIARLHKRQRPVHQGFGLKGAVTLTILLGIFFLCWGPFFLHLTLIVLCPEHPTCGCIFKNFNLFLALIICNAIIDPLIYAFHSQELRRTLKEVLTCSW
# Description: (§1) A competitive inhibition binding assay was performed using membrane homogenates prepared from HEK-293 cells that express recombinant hMC4-R, hMC3-R, or hMC5-R, and from B-16 mouse melanoma cells (containing endogenous MC1-R). In some instances, HEK-293 cells that express recombinant hMC1-R were employed. In the examples that follow, all MC3-R, MC4-R and MC5-R values are for human recombinant receptors. MC1-R values are for B-16 mouse melanoma cells, unless the heading is “hMC1-R”, in which case the value is for human recombinant MC1-R. Assays were performed in 96 well GF/B Millipore multiscreen filtration plates (MAFB NOB10) pre-coated with 0.5% bovine serum albumin (Fraction V). […] After incubation for 60 minutes at 37° C., the assay mixture was filtered and the membranes washed three times with ice-cold buffer. Filters were dried and counted in a gamma counter for bound radioactivity. […] Maximal specific binding (100%) was defined as the difference in radioactivity (cpm) bound to cell membranes in the absence and presence of 1 μM NDP-α-MSH. […] Each assay was conducted in triplicate and the actual mean values are described, with results less than 0% reported as 0%. Ki values for test compounds were determined using Graph-Pad Prism® curve-fitting software.
# MC3-R = biological target: T2, MC3-R (Homo sapiens, UniProt P41968); assay: Competitive inhibition binding assay using [I125]-NDP-α-MSH, HEK-293 membranes, recombinant hMC3-R; conditions: for inhibition at 1 µM: 1 μM compound
# T2 construct: expressed in transfected cells; host or cells: HEK-293
# T2 sequence (P41968 whole entry): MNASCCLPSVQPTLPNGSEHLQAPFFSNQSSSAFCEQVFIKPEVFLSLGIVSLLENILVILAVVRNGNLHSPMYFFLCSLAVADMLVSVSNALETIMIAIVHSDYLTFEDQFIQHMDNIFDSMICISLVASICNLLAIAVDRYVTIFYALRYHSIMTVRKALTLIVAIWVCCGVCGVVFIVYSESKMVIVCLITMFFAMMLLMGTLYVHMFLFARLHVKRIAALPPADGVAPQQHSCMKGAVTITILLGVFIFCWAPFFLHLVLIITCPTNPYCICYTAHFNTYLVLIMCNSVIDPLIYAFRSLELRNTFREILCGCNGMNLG
# Description: as §1
# MC5-R = biological target: T3, MC5-R (Homo sapiens, UniProt P33032); assay: Competitive inhibition binding assay using [I125]-NDP-α-MSH, HEK-293 membranes, recombinant hMC5-R; conditions: for inhibition at 1 µM: 1 μM compound
# T3 construct: expressed in transfected cells; host or cells: HEK-293
# T3 sequence (P33032 whole entry): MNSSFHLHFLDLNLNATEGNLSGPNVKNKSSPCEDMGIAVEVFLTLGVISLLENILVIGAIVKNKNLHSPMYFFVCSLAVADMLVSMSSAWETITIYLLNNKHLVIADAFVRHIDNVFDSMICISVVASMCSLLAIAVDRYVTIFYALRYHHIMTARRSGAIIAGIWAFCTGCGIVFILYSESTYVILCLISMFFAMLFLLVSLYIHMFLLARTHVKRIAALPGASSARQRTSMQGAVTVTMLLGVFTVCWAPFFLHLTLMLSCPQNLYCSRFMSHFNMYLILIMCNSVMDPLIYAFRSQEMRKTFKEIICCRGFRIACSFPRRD
# Description: as §1
# MC4-R = MC4-R (Homo sapiens, UniProt P32245); assay: Competitive inhibition binding assay using [I125]-NDP-α-MSH, HEK-293 membranes, recombinant hMC4-R; design: expressed in transfected cells; host or cells: HEK-293; conditions: for inhibition at 1 µM: 1 μM compound
# Chain of MC4-R (P32245 whole entry): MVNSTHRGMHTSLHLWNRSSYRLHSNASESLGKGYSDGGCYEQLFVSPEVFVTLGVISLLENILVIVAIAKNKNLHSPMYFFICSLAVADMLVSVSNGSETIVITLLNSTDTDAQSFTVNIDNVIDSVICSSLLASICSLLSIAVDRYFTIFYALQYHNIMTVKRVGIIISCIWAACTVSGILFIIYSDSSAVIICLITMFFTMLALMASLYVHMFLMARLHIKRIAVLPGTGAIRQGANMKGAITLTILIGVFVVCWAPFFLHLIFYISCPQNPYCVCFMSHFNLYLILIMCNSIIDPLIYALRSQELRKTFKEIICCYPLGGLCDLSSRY
# Description: as §1
smiles,measurement,setting,value
"Cc1ccc(C[C@@H](N)CN2C[C@@H](C)N(C(=O)Cc3ccc4ccccc4c3)C[C@@H]2Cc2ccc(NCCN)cc2)c(C)c1 [Example 11, 1-{(2R,5S)-4-[(R)-2-Amino-3-(2,4-dimethyl-phenyl)-propyl]-5-[4-(2-amino-ethylamino)-benzyl]-2-methyl-piperazin-1-yl}-2-naphthalen-2-yl-ethanone]",inhibition at 1 µM,hMC1-R,3%
same,inhibition at 1 µM,MC3-R,29%
same,inhibition at 1 µM,MC5-R,36%
same,inhibition at 1 µM,MC4-R,39%
"Cc1ccc(C[C@@H](N)C(=O)N2C[C@H](CCCNCCN)N(C(=O)[C@H](N)Cc3ccc(C)cc3C)C[C@H]2CC2CCCCC2)c(C)c1 [Example 14, (R)-2-Amino-1-{(2R,5S)-4-[(R)-2-amino-3-(2,4-dimethyl-phenyl)-propionyl]-5-[3-(2-amino-ethylamino)-propyl]-2-cyclohexylmethyl-piperazin-1-yl}-3-(2,4-dimethyl-phenyl)-propan-1-one]",inhibition at 1 µM,hMC1-R,35%
same,inhibition at 1 µM,MC3-R,22%
same,inhibition at 1 µM,MC5-R,43%
same,Ki,MC4-R,81 nM
same,inhibition at 1 µM,MC4-R,83%
"NCCNCCC[C@H]1CN(C(=O)[C@H](N)Cc2ccc(Cl)cc2Cl)[C@H](CC2CCCCC2)CN1C(=O)[C@H](N)Cc1ccc(Cl)cc1Cl [Example 15, (R)-2-Amino-1-{(2R,5S)-4-[(R)-2-amino-3-(2,4-dichloro-phenyl)-propionyl]-5-[3-(2-amino-ethylamino)-propyl]-2-cyclohexylmethyl-piperazin-1-yl}-3-(2,4-dichloro-phenyl)-propan-1-one]",inhibition at 1 µM,hMC1-R,27%
same,inhibition at 1 µM,MC3-R,36%
same,inhibition at 1 µM,MC5-R,31%
same,Ki,MC4-R,74 nM
same,inhibition at 1 µM,MC4-R,83%
"NCCNCCC[C@H]1CN(C(=O)[C@H](N)Cc2ccc3ccccc3c2)[C@H](CC2CCCCC2)CN1C(=O)[C@H](N)Cc1ccc2ccccc2c1 [Example 16, (R)-2-Amino-1-[(2R,5S)-5-[3-(2-amino-ethylamino)-propyl]-4-((R)-2-amino-3-naphthalen-2-yl-propionyl)-2-cyclohexylmethyl-piperazin-1-yl]-3-naphthalen-2-yl-propan-1-one]",Ki,hMC1-R,22 nM
same,Ki,MC3-R,36 nM
same,Ki,MC5-R,30 nM
same,Ki,MC4-R,99 nM and 81 nM
"Cc1ccc(C[C@@H](N)C(=O)N2C[C@H](CCCNCCN)N(C(=O)[C@H](N)Cc3ccc(C)cc3C)C[C@H]2CC(C)C)c(C)c1 [Example 17, (R)-2-Amino-1-{(2S,5R)-4-[(R)-2-amino-3-(2,4-dimethyl-phenyl)-propionyl]-2-[3-(2-amino-ethylamino)-propyl]-5-isobutyl-piperazin-1-yl}-3-(2,4-dimethyl-phenyl)-propan-1-one]",inhibition at 1 µM,hMC1-R,22%
same,inhibition at 1 µM,MC3-R,14%
same,inhibition at 1 µM,MC5-R,38%
same,Ki,MC4-R,60 nM
same,inhibition at 1 µM,MC4-R,83%
"CC(C)C[C@@H]1CN(C(=O)[C@H](N)Cc2ccc(Cl)cc2Cl)[C@@H](CCCCNCCN)CN1C(=O)[C@H](N)Cc1ccc(Cl)cc1Cl [Example 19, (R)-2-Amino-1-{(2R,5S)-4-[(R)-2-amino-3-(2,4-dichloro-phenyl)-propionyl]-5-[4-(2-amino-ethylamino)-butyl]-2-isobutyl-piperazin-1-yl}-3-(2,4-dichloro-phenyl)-propan-1-one]",inhibition at 1 µM,hMC1-R,36%
same,Ki,hMC1-R,754 nM
same,Ki,MC3-R,327 nM
same,inhibition at 1 µM,MC3-R,59%
same,Ki,MC5-R,296 nM
same,inhibition at 1 µM,MC5-R,47%
same,Ki,MC4-R,36 nM
same,inhibition at 1 µM,MC4-R,97%
"Cc1ccc(C[C@@H](N)C(=O)N2C[C@H](CCCCNCCN)N(C(=O)[C@H](N)Cc3ccc(C)cc3C)C[C@H]2CC(C)C)c(C)c1 [Example 21, (R)-2-Amino-1-{(2R,5S)-4-[(R)-2-amino-3-(2,4-dimethyl-phenyl)-propionyl]-5[4-(2-amino-ethylamino)-butyl]-2-isobutyl-piperazin-1-yl}-3-(2,4-dimethyl-phenyl)-propan-1-one]",inhibition at 1 µM,hMC1-R,39%
same,Ki,hMC1-R,567 nM
same,Ki,MC3-R,1050 nM
same,inhibition at 1 µM,MC3-R,55%
same,Ki,MC5-R,450 nM
same,inhibition at 1 µM,MC5-R,51%
same,Ki,MC4-R,83 nM
same,inhibition at 1 µM,MC4-R,95%
"NCCNCCCC[C@H]1CN(C(=O)[C@H](N)Cc2ccc(Cl)cc2Cl)[C@H](CC2CCCCC2)CN1C(=O)[C@H](N)Cc1ccc(Cl)cc1Cl [Example 24, (R)-2-Amino-1-{(2R,5S)-4-[(R)-2-amino-3-(2,4-dichloro-phenyl)-propionyl]-5-[4-(2-amino-ethylamino)-butyl]-2-cyclohexylmethyl-piperazin-1-yl}-3-(2,4-dichloro-phenyl)-propan-1-one]",Ki,hMC1-R,270 nM
same,Ki,MC3-R,443 nM
same,Ki,MC5-R,139 nM
same,Ki,MC4-R,17 nM
"C[C@@H]1CN(C(=O)[C@H](N)Cc2ccc(Cl)cc2Cl)[C@@H](CCCNCCN)CN1C(=O)[C@H](N)Cc1ccc(Cl)cc1Cl [Example 25, (R)-2-Amino-1-{(2R,5S)-4-[(R)-2-amino-3-(2,4-dichloro-phenyl)-propionyl]-5-[3-(2-amino-ethylamino)-propyl]-2-methyl-piperazin-1-yl}-3-(2,4-dichloro-phenyl)-propan-1-one]",inhibition at 1 µM,hMC1-R,67%
same,inhibition at 1 µM,MC3-R,89%
same,inhibition at 1 µM,MC5-R,93%
same,Ki,MC4-R,41 nM
same,inhibition at 1 µM,MC4-R,98%
"Cc1ccc(C[C@@H](N)C(=O)N2C[C@@H](C)N(C(=O)[C@H](N)Cc3ccc(C)cc3C)C[C@@H]2CCCNCCN)c(C)c1 [Example 26, (R)-2-Amino-1-{(2R,5S)-4-[(R)-2-amino-3-(2,4-dimethyl-phenyl)-propionyl]-5-[3-(2-amino-ethylamino)-propyl]-2-methyl-piperazin-1-yl}-3-(2,4-dimethyl-phenyl)-propan-1-one]",inhibition at 1 µM,hMC1-R,53%
same,inhibition at 1 µM,MC3-R,57%
same,inhibition at 1 µM,MC5-R,76%
same,Ki,MC4-R,64 nM
same,inhibition at 1 µM,MC4-R,96%
"C[C@@H]1CN(C(=O)[C@H](N)Cc2ccc3ccccc3c2)[C@@H](CCCNCCN)CN1C(=O)[C@H](N)Cc1ccc2ccccc2c1 [Example 27, (R)-2-Amino-1-[(2R,5S)-5-[3-(2-amino-ethylamino)-propyl]-4-((R)-2-amino-3-naphthalen-2-yl-propionyl)-2-methyl-piperazin-1-yl]-3-naphthalen-2-yl-propan-1-one]",inhibition at 1 µM,hMC1-R,62%
same,inhibition at 1 µM,MC3-R,79%
same,inhibition at 1 µM,MC5-R,73%
same,Ki,MC4-R,42 nM
same,inhibition at 1 µM,MC4-R,93%
"C[C@@H]1CN(C(=O)[C@H](N)Cc2ccc(Cl)c(Cl)c2)[C@@H](CCCNCCN)CN1C(=O)[C@H](N)Cc1ccc(Cl)c(Cl)c1 [Example 28, (R)-2-Amino-1-{(2R,5S)-4-[(R)-2-amino-3-(3,4-dichloro-phenyl)-propionyl]-5-[3-(2-amino-ethylamino)-propyl]-2-methyl-piperazin-1-yl}-3-(3,4-dichloro-phenyl)-propan-1-one]",inhibition at 1 µM,hMC1-R,77%
same,inhibition at 1 µM,MC3-R,94%
same,inhibition at 1 µM,MC5-R,84%
same,Ki,MC4-R,19 nM
same,inhibition at 1 µM,MC4-R,96%
"CC(C)C[C@@H]1CN(C[C@H](N)Cc2ccc(Cl)cc2Cl)[C@@H](CCCNCCCN)CN1C(=O)Cc1ccc2ccccc2c1 [Example 29, 1-{(2R,5S)-4-[(R)-2-Amino-3-(2,4-dichloro-phenyl)-propyl]-5-[3-(3-amino-propylamino)-propyl]-2-isobutyl-piperazin-1-yl}-2-naphthalen-2-yl-ethanone]",inhibition at 1 µM,hMC1-R,33%
same,inhibition at 1 µM,MC3-R,65%
same,inhibition at 1 µM,MC5-R,84%
same,inhibition at 1 µM,MC4-R,91%
